Experiment: mn = molality of the nth substance listed, in mol/kg
Settings: 101.3 kPa, Liquid, Vibrating tube method

O=C(O)CC(=O)O [propanedioic acid] + O
mass density [kg/m3]
Settings	278.15 K	283.15 K	288.15 K	293.15 K	298.15 K	303.15 K	308.15 K
m1 = 0.01001	1000.48	1000.21	999.61	998.7	997.52	996.14	994.51
m1 = 0.02001	1000.91	1000.62	1000.03	999.1	997.93	996.53	994.89
m1 = 0.03	1001.31	1001	1000.4	999.47	998.3	996.9	995.23
m1 = 0.03962	1001.73	1001.4	1000.79	999.85	998.66	997.28	995.6
m1 = 0.04998	1002.16	1001.83	1001.21	1000.27	999.07	997.66	996
m1 = 0.05936	1002.53	1002.19	1001.57	1000.61	999.4	997.99	996.33
m1 = 0.06926	1002.93	1002.58	1001.95	1000.99	999.78	998.37	996.69
m1 = 0.07949	1003.34	1002.98	1002.34	1001.37	1000.15	998.72	997.06
m1 = 0.08906	1003.73	1003.36	1002.71	1001.73	1000.52	999.08	997.4
m1 = 0.09935	1004.11	1003.73	1003.07	1002.12	1000.89	999.45	997.74
m1 = 0.1984	1008.06	1007.6	1006.87	1005.8	1004.55	1003.05	1001.28
m1 = 0.2977	1011.96	1011.4	1010.6	1009.46	1008.15	1006.6	1004.77
m1 = 0.404	1016	1015.36	1014.47	1013.26	1011.88	1010.27	1008.39
m1 = 0.5055	1019.85	1019.12	1018.15	1016.89	1015.45	1013.79	1011.84
m1 = 0.6055	1023.51	1022.71	1021.67	1020.35	1018.85	1017.14	1015.15
m1 = 0.6936	1026.73	1025.86	1024.77	1023.39	1021.85	1020.08	1018.07
m1 = 0.7926	1030.29	1029.35	1028.19	1026.76	1025.16	1023.35	1021.29
m1 = 0.891	1033.82	1032.8	1031.58	1030.1	1028.44	1026.58	1024.47
m1 = 0.9895	1037.16	1036.1	1034.82	1033.27	1031.58	1029.66	1027.51

From the NIST ThermoML archive (doi:10.1016/j.jct.2016.06.023)
